Experimental data as given in US11426415B2, “Treatment for Wolfram syndrome and other endoplasmic reticulum stress disorders” (Washington University, priority 2017, dated 2022).
Where two headings read alike, the source gives them in different places.

How the values were obtained:
[1] = tested on: INS-1E cells; experiment: Cytokine-induced cell death in INS-1E cells (caspase 3/7 activity assay); type: cell-based; settings: 1 μM-50 μM for 24 hours, then IL-1β and IFN-γ 50 ng/ml for 24 hours; FIG. 10
Description: (§1) A Caspase 3/7 assay (Promega, Madison, Wis.) was utilized to measure caspase-3 and -7 activities in various cell lines. The assay provides a proluminescent caspase-3/7 substrate, which contains the tetrapeptide sequence DEVD. This caspase-3/7 substrate can be added directly to cell lysates. The substrate is cleaved to release an aminoluciferin, which is a substrate for luciferase used in the production of light. The signal is proportional to caspase-3/7 activity. The stabilized luciferase and proprietary buffer system improve assay performance across a wide range of assay conditions, and the assay is less likely to be affected by compound interference unlike fluorescent- or colorimetric-based assays
To determine whether JTV519 can prevent ER calcium depletion and confer protection against ER stress-mediated cell death in a cell model of type 1 diabetes. INS-1E cells were pre-treated with 1 μM-50 μM of JTV519 for 24 hours then stressed for 24 hours with cytokines (IL-1β and IFN-γ 50 ng/ml). Apoptotic cell death was measured via caspase 3/7 activity assay. […] Data are expressed as mean±SEM from three independent experiments. *p<0.05 compared to cytokine treated cells unpaired t-test.

[2] = tested on: INS-1 832/13 cells; experiment: Cytosolic calcium levels by Fura-2AM in INS-1 832/13 cells challenged with thapsigargin; type: cell-based; settings: range of concentrations, thapsigargin 1 μM added, FIGS. 5 and 6
Procedure: INS-1 832/13 cells were treated with JTV519 or JTV519-oxidized over a range of concentrations. Cytoplasmic calcium levels were measured by Fura-2AM calcium indicator over a period of minutes. Thapsigargin (1 μM) was added at the time point indicated by an arrow (n=6, the experiment was repeated 6 independent times) on FIGS. 5 and 6.

[3] = tested on: INS-1 823/13 cells; experiment: Thapsigargin-mediated cell death (caspase 3/7-Glo luminescence); type: cell-based; settings: pretreated 24 hours, then 0.5 nM thapsigargin overnight; FIGS. 7-9
Description: as §1
The pathway leading to calpain-2 activation provides potential therapeutic targets for Wolfram syndrome, such as leakage of ER calcium to the cytosol. To test this concept, a small-scale screen was performed to identify chemical compounds that could prevent cell death mediated by thapsigargin, a known inhibitor for ER calcium ATPase. INS-1 823/13 cells were pretreated with […] in media containing 0.5 nM of thapsigargin (TG) overnight. Apoptosis was detected by caspase 3/7-Glo luminescence.

[4] = tested on: WFS1 gene knockout mice; experiment: Motor function study, 90° inclined screen test; type: in vivo; settings: i.p. 15 mg/kg/day, 5 days per week, 6 weeks, vs control mice, FIG. 11
Procedure: WFS1 gene knockout mice, a mouse model of Wolfram syndrome, were treated with JTV519 (i.p. injections, 15 mg/kg/day, 5 days per week) or saline after they become 6 weeks old for 6 weeks (5 female mice for each group). Littermate wild-type control mice were treated by saline (VEH) for 6 weeks (3 female mice). Motor functions of the WFS1 knockout were evaluated using a 90° inclined screen test.
For the 90° inclined screen test, each mouse was placed on top of an elevated (47 cm above the floor) wire mesh grid (16 squares per 10 cm) that was inclined to 90°. Each mouse was placed in the middle of the screen with its head oriented down and was timed for how long it remained on the screen and how long it took to climb to the top of the screen.

[5] = Pharmacokinetic study of JTV519 in CD1 mice (UPLC-MS/MS); type: in vivo; settings: for AUC(0-inf) / Cmax / half-life / Kp: CD-1 mouse; for Kp: read-out: AUC ratio (with plasma)
Procedure: To study the pharmacokinetics of JTV519, the compound was synthesized as the HCl salt and formulated as a clear solution in 20% HP-β-CD in saline and intraperitoneally injected into CD1 mice. Samples of blood and pancreas tissue and whole brain and heart organs were collected from the mice and analyzed.
An ultra-performance liquid chromatography-tandem mass spectrometry (UPLC-MS/MS) method was developed to determine sample concentrations in the samples. Mass spectrometric analysis was performed on a Waters Xevo TQ-S triple quadrupole instrument using electrospray ionization in positive mode with the selected reaction monitoring (SRM). The MS/MS parameters were optimized by infusion compounds. The separation was performed on an Acquity BEH C18 column (50×2.1 mm, 1.7μ) using a Waters Acquity UPLC system with 0.6 mL/min flow rate and gradient elution. The column temperature was maintained at 60° C. The calibration standards (1.0-5000 ng/mL) and quality control samples were prepared in the blank mouse plasma. 10 μL plasma samples were mixed with 200 μL internal standard in acetonitrile to precipitate proteins in a 96-well plate. 1.0 μL supernatant was injected for the UPLC-MS/MS analysis

[6] = tested on: WFS1 depleted INS-1 832/13 cells; experiment: Cell death in WFS1 depleted INS-1 832/13 cells (Caspase 3/7 activation); type: cell-based; settings: pretreated 24 h with various concentrations, then DOX 48 h to deplete WFS1; FIGS. 3 and 4
Description: as §1
INS-1 832/13 cells in which WFS1 expression could be depleted by doxycycline (DOX)-inducible expression of shWFS1 were pretreated with or without various concentrations of JTV519 or oxidized JTV519 for 24 h and then treated with DOX for 48 h to deplete WFS1 and induce cell death. Apoptosis was measured by monitoring Caspase 3/7 activation.

[7] = tested on: mouse model of SCA; settings: given with a RyR inhibitor; cited from earlier work
[8] = conclusion from the pharmacokinetic study

COc1ccc2c(c1)CN(C(=O)CCN1CCC(Cc3ccccc3)CC1)CCS2 [JTV519, 3-(4-benzyl-1-piperidinyl)-1-(7-methoxy-2,3-dihydro-1,4-benzothiazepin-4(5H)-yl)-1-propanone]
cytokine-induced cell death (caspase 3/7 activity) [1]: protects INS-1E cells from cytokine-induced cell death | cytosolic calcium levels [2]: decreased cytosolic calcium levels | thapsigargin mediated cell death (apoptosis, caspase 3/7-Glo) [3]: did not significantly suppress thapsigargin mediated cell death | motor functions (time to reach the top of the screen) [4]: improved motor functions | AUC(0-inf) ([5]; brain, ip 30 mg/kg, n = 3): 10100 ng·h/mL | Cmax ([5]; brain, ip 30 mg/kg, n = 3): 5130 ng/mL | half-life ([5]; brain, ip 30 mg/kg, n = 3): 5.1 h | Kp ([5]; brain, ip 30 mg/kg, n = 3): 2.9 | permeability [5, 8]: good | solubility [5, 8]: good | blood brain barrier passage ([5]; conclusion from the pharmacokinetic study, ip 30 mg/kg, mice): passed the blood brain barrier | AUC(0-inf) ([5]; heart, ip 30 mg/kg, n = 3): 29200 ng·h/mL | Cmax ([5]; heart, ip 30 mg/kg, n = 3): 14300 ng/mL | half-life ([5]; heart, ip 30 mg/kg, n = 3): 4 h | Kp ([5]; heart, ip 30 mg/kg, n = 3): 8.4 | AUC(0-inf) ([5]; pancreas, ip 30 mg/kg, n = 3): 146000 ng·h/mL | Cmax ([5]; pancreas, ip 30 mg/kg, n = 3): 105000 ng/mL | half-life ([5]; pancreas, ip 30 mg/kg, n = 3): 4.5 h | Kp ([5]; pancreas, ip 30 mg/kg, n = 3): 42 | AUC(0-inf) ([5]; plasma, ip 30 mg/kg): 3460 ng·h/mL | half-life ([5]; plasma, ip 30 mg/kg): 7.1 h | Cmax ([5]; plasma, ip 30 mg/kg, HCl salt in 20% HP-β-CD in saline): 1810 ng/mL | cell death (apoptosis, Caspase 3/7 activation) [6]: suppress cell death

O=C1CN(/N=C/c2ccc(-c3ccc([N+](=O)[O-])cc3)o2)C(=O)[N-]1.[Na+] [Dantrolene, 1-[[5-(4-nitrophenyl)-2-furyl]methylideneamino]imidazolidine-2,4-dione]
age dependent deficit of motor coordination [7]: ameliorated the age dependent deficit of motor coordination
